# From US20070072938A1, “DRONABINOL TREATMENT OF DELAYED CHEMOTHERAPY-INDUCED NAUSEA AND VOMITING” (priority 2005, published 2007)
# Marks after values point to notes of the source that are not given here.
# How the values were obtained:
# [1] = test system: patients receiving moderately to highly emetogenic chemotherapy; experiment: Randomized, double-blind, placebo-controlled study: antiemetic efficacy in delayed CINV (Days 2-5); type: in vivo, human; details: for Absence of nausea / Absence of nausea (frequency/n) / Mean vomiting/retching / Total response (frequency/n) / Mean nausea intensity: Days 2-5; for Mean nausea intensity: 100-mm VAS; for Total response: Days 2-5 LOCF end point, TR = nausea <5 mm VAS, no vomiting/retching, no rescue; for Complete Response: No / Complete Response: Yes: LOCF End Point (Days 2-5)
# Procedure: (§1) A randomized, double-blind, placebo-controlled, parallel-group study evaluating the antiemetic efficacy and tolerability of oral dronabinol alone, dronabinol in combination with ondansetron, ondansetron alone, and placebo in patients receiving moderate to high emetogenic chemotherapy was conducted. All patients received dexamethasone 20 mg and ondansetron 16 mg intravenously prechemotherapy. […] On Day 2, placebo or fixed doses of 10 mg dronabinol, 16 mg ondansetron, or dronabinol plus ondansetron were administered. On Days 3-5, patients received placebo, flexible doses of 10-20 mg dronabinol, 8-16 mg ondansetron, or dronabinol plus ondansetron. Rescue antiemetics were permitted after using the maximum dose of medication. The primary efficacy variable was total response (“TR”) to study medication (TR=nausea intensity<5 mm on a 100-mm visual analog scale, no vomiting/retching, no rescue antiemetic). Secondary efficacy parameters included nausea status and intensity, as well as episodes of vomiting/retching. […] TR and presence/absence of nausea were evaluated using the Fisher's Exact Test. Tolerability was assessed by physical examination and adverse events.
# All efficacy analyses were based on the ITT population.
# This was a randomized, double-blind, placebo-controlled, parallel-group, 5-day study to evaluate the antiemetic efficacy and safety of oral dronabinol (sole under the trade name, Marinol®) alone, and in combination with ondansetron (sole under the trade name, Zofran®), versus ondansetron alone in patients receiving moderately to highly emetogenic chemotherapy. The investigator obtained written approval from the Institutional Review Board, and the study was conducted in accordance with the Declaration of Helsinki.
# Patients who entered the study were to undergo cancer chemotherapy with moderately to highly emetogenic agents on Day 1 when they were randomized into 1 of 4 treatment groups: dronabinol alone (Group Dronabinol), ondansetron alone (Group Ondansetron), combination therapy with dronabinol and ondansetron (Group Dronabinol/Ondansetron), or placebo (Group Placebo). All patients received a standard prechemotherapy regimen of dexamethasone (20 mg) and ondansetron (16 mg). […] Placebo patients received matching placebo prechemotherapy and postchemotherapy on Day 1.
# (§2) A kit of open-label antiemetics (metoclopramide 10 mg, prochlorperazine 5 mg, and prochlorperazine 25-mg suppository) was provided to the study participants for use on Days 1 through 8 as rescue medications to treat intolerable nausea and vomiting and/or retching after using the maximum dose of study medication at any dosing interval. Patients recorded the use of rescue medication and returned the unused portion of the kit.
# Each morning, patients recorded the number of vomiting and/or retching episodes in the previous day. In addition, the patient recorded the daily presence or absence of nausea and its duration.
# The primary efficacy measure was the incidence of total response to treatment following administration of moderately to highly emetogenic chemotherapeutic agents. Total response was defined as no vomiting and/or retching, intensity of nausea <5 mm on a 100-mm Visual Analog Scale (VAS scale 0-100 mm; 0 mm=no nausea; 100 mm=intractable nausea), and no use of rescue medication.
# The secondary efficacy analysis included patients who took rescue medication. However, analyses were conducted only on data collected before the use of any rescue medication. The secondary efficacy assessments were complete response, presence or absence of nausea, episodes of vomiting and/or retching, duration of nausea and vomiting and/or retching, intensity of nausea measured by VAS, ECOG (wellness), and QoL. Complete response for vomiting/retching was defined as no vomiting/retching, intensity of nausea of ≦30 mm on the VAS, and no use of rescue therapy.
# [2] = test system: patients receiving moderately to highly emetogenic chemotherapy; experiment: Other analyses: rescue antiemetic use and compliance with study medication; type: in vivo, human; details: for patients who required rescue medicine: Day 5; for Rescue antiemetics used (patients): whole study
# Procedure: as §2
# For the primary efficacy parameter, a logistic regression model was used for the primary analysis and a Cochran-Mantel-Haenszel (“CMH”) test stratified by pooled center was performed as a supportive analysis. Continuous secondary efficacy parameters were analyzed for all pairwise comparisons using a 2-way analysis of variance (“ANOVA”) with treatment and pooled center as fixed factors. For data that was not normally distributed, data were ranked, and an ANOVA was performed on the ranked scores. Categorical secondary efficacy parameters were analyzed for all pairwise comparisons using the CMH test stratified by pooled center. No adjustment for multiple comparisons was performed for the secondary efficacy parameters. No interactions were examined for the secondary efficacy parameters. Compliance with study medication was defined as taking all doses of supplied medication and was measured throughout the trial.
# [3] = test system: patients receiving moderately to highly emetogenic chemotherapy; experiment: ECOG (wellness) and McCorkle Symptom Distress Scale (QoL) assessment; type: in vivo, human
# Procedure: The secondary efficacy analysis included patients who took rescue medication. However, analyses were conducted only on data collected before the use of any rescue medication. The secondary efficacy assessments were complete response, presence or absence of nausea, episodes of vomiting and/or retching, duration of nausea and vomiting and/or retching, intensity of nausea measured by VAS, ECOG (wellness), and QoL. Complete response for vomiting/retching was defined as no vomiting/retching, intensity of nausea of ≦30 mm on the VAS, and no use of rescue therapy. The presence or absence of nausea, episodes of vomiting and/or retching, and duration of nausea and vomiting and/or retching were assessed from daily patient telephone diary entries completed each morning to report the previous day. The patient was prompted through the Interactive Voice Response System to use the standard VAS to assess nausea intensity. The ECOG (wellness) assessment was clinician administered at screening and again on Day 6, Day 7, or Day 8 (or early termination). The possible range of the ECOG assessment was 0 to 4, where 0 was normal activity with no limitations and 4 was very sick, rarely out of bed.
# The McCorkle Symptom Distress Scale (QoL assessment) evaluation was conducted on Day 1 (postchemotherapy) and again on Day 6, Day 7, or Day 8 (or early termination). […]
# [4] = test system: patients receiving moderately to highly emetogenic chemotherapy; experiment: Safety and tolerability: treatment-emergent adverse events (safety population)
# Procedure: as §1
# AEs and concomitant medications were also assessed.
compound,measurement,setting,value
"CCCCCc1cc(O)c2c(c1)OC(C)(C)[C@@H]1CCC(C)=C[C@@H]21 [Dronabinol, delta-9-tetrahydrocannabinol]",Duration of nausea: 3-6 h,[1]; Day 2,0 n (%)
same,Duration of nausea: 6-8 h,[1]; Day 2,1 (8) n (%)
same,Duration of nausea: 8-10 h,[1]; Day 2,0 n (%)
same,Duration of nausea: <3 h,[1]; Day 2,1 (8) n (%)
same,Duration of nausea: >10 h,[1]; Day 2,2 (15) n (%)
same,Duration of nausea: No nausea reported,[1]; Day 2,9 (69) n (%)
same,Observed Duration of Vomiting/Retching (mean ± SD),[1]; Day 2,0.00 ± 0.00 h
same,Duration of nausea: 3-6 h,[1]; Day 3,0 n (%)
same,Duration of nausea: 6-8 h,[1]; Day 3,2 (17) n (%)
same,Duration of nausea: 8-10 h,[1]; Day 3,0 n (%)
same,Duration of nausea: <3 h,[1]; Day 3,2 (17) n (%)
same,Duration of nausea: >10 h,[1]; Day 3,1 (8) n (%)
same,Duration of nausea: No nausea reported,[1]; Day 3,7 (58) n (%)
same,Observed Duration of Vomiting/Retching (mean ± SD),[1]; Day 3,0.41 ± 1.36 h
same,Duration of nausea: 3-6 h,[1]; Day 4,0 n (%)
same,Duration of nausea: 6-8 h,[1]; Day 4,0 n (%)
same,Duration of nausea: 8-10 h,[1]; Day 4,0 n (%)
same,Duration of nausea: <3 h,[1]; Day 4,1 (11) n (%)
same,Duration of nausea: >10 h,[1]; Day 4,0 n (%)
same,Duration of nausea: No nausea reported,[1]; Day 4,8 (89) n (%)
same,Observed Duration of Vomiting/Retching (mean ± SD),[1]; Day 4,0.00 ± 0.01 h
same,Duration of nausea: 3-6 h,[1]; Day 5,0 n (%)
same,Duration of nausea: 6-8 h,[1]; Day 5,0 n (%)
same,Duration of nausea: 8-10 h,[1]; Day 5,0 n (%)
same,Duration of nausea: <3 h,[1]; Day 5,1 (13) n (%)
same,Duration of nausea: >10 h,[1]; Day 5,0 n (%)
same,Duration of nausea: No nausea reported,[1]; Day 5,7 (88) n (%)
same,Observed Duration of Vomiting/Retching (mean ± SD),[1]; Day 5,0.00 ± 0.00 h
same,Absence of nausea,[1],71^† %
same,Absence of nausea (frequency/n),[1],(10/14)
same,Mean vomiting/retching,[1],0.2 episodes/day
same,Total response (frequency/n),[1],(7/13)
same,Mean nausea intensity,[1],10.1^† mm
same,Absence of nausea,[1]; listed as dronabinol,71%
same,Total response,[1],54%
same,Complete Response: No,[1],5 (38) n (%)
same,Complete Response: Yes,[1],8 (62) n (%)
same,antiemetic effect for delayed CINV,[1]; result in words,comparable with ondansetron
same,patients who required rescue medicine,[2],12%
same,Rescue antiemetics used (patients),[2],24%
same,"McCorkle Symptom Distress Scale (QoL), mean change from baseline","[3]; Day 1 versus Day 6, 7 or 8, lower values = less distress",−2.0±4.2
same,ECOG (wellness) change after treatment,[3]; result in words,Shifts in ECOG from 1 to 0 (improvement)
same,Adverse event: Asthenia,[4]; Safety Population,2 (12) n (%)
same,Adverse event: Chest pain,[4]; Safety Population,1 (6) n (%)
same,Adverse event: Constipation,[4]; Safety Population,1 (6) n (%)
same,Adverse event: Diarrhea,[4]; Safety Population,4 (24) n (%)
same,Adverse event: Dizziness,[4]; Safety Population,1 (6) n (%)
same,Adverse event: Fatigue,[4]; Safety Population,2 (12) n (%)
same,Adverse event: Headache,[4]; Safety Population,0 n (%)
same,Adverse event: Hyperglycemia,[4]; Safety Population,0 n (%)
same,Adverse event: Insomnia,[4]; Safety Population,0 n (%)
same,Patients who permanently discontinued study medication because of a TEAE,[4]; Safety Population,1 (6) n (%)
same,Patients with at least 1 SAE,[4]; Safety Population,2 (12) n (%)
same,Patients with at least 1 TEAE,[4]; Safety Population,14 (82) n (%)
same,Patients with at least 1 TEAE leading to dose reduction,[4]; Safety Population,0 n (%)
same,Patients with at least 1 severe TEAE,[4]; Safety Population,2 (12) n (%)
same,incidence of CNS-related events,[4]; result in words,low and few CNS-related AEs
same,tolerability,[4]; result in words,well tolerated
"Cc1nccn1CC1CCc2c(c3ccccc3n2C)C1=O (stereo not drawn) [Ondansetron, ondansetron]",Duration of nausea: 3-6 h,[1]; Day 2,0 n (%)
same,Duration of nausea: 6-8 h,[1]; Day 2,0 n (%)
same,Duration of nausea: 8-10 h,[1]; Day 2,0 n (%)
same,Duration of nausea: <3 h,[1]; Day 2,4 (33) n (%)
same,Duration of nausea: >10 h,[1]; Day 2,1 (8) n (%)
same,Duration of nausea: No nausea reported,[1]; Day 2,7 (58) n (%)
same,Observed Duration of Vomiting/Retching (mean ± SD),[1]; Day 2,2.00 ± 6.93 h
same,Duration of nausea: 3-6 h,[1]; Day 3,0 n (%)
same,Duration of nausea: 6-8 h,[1]; Day 3,1 (10) n (%)
same,Duration of nausea: 8-10 h,[1]; Day 3,0 n (%)
same,Duration of nausea: <3 h,[1]; Day 3,1 (10) n (%)
same,Duration of nausea: >10 h,[1]; Day 3,0 n (%)
same,Duration of nausea: No nausea reported,[1]; Day 3,8 (80) n (%)
same,Observed Duration of Vomiting/Retching (mean ± SD),[1]; Day 3,0.06 ± 0.17 h
same,Duration of nausea: 3-6 h,[1]; Day 4,0 n (%)
same,Duration of nausea: 6-8 h,[1]; Day 4,0 n (%)
same,Duration of nausea: 8-10 h,[1]; Day 4,0 n (%)
same,Duration of nausea: <3 h,[1]; Day 4,1 (13) n (%)
same,Duration of nausea: >10 h,[1]; Day 4,0 n (%)
same,Duration of nausea: No nausea reported,[1]; Day 4,7 (88) n (%)
same,Observed Duration of Vomiting/Retching (mean ± SD),[1]; Day 4,0.00 ± 0.00 h
same,Duration of nausea: 3-6 h,[1]; Day 5,1 (14) n (%)
same,Duration of nausea: 6-8 h,[1]; Day 5,0 n (%)
same,Duration of nausea: 8-10 h,[1]; Day 5,0 n (%)
same,Duration of nausea: <3 h,[1]; Day 5,0 n (%)
same,Duration of nausea: >10 h,[1]; Day 5,0 n (%)
same,Duration of nausea: No nausea reported,[1]; Day 5,6 (86) n (%)
same,Observed Duration of Vomiting/Retching (mean ± SD),[1]; Day 5,0.02 ± 0.06 h
same,Absence of nausea,[1],64^† %
same,Absence of nausea (frequency/n),[1],(9/14)
same,Mean vomiting/retching,[1],1.3 episodes/day
same,Total response (frequency/n),[1],(7/12)
same,Mean nausea intensity,[1],24.0^† mm
same,Absence of nausea,[1]; listed as ondansetron,64%
same,Total response,[1],58%
same,Complete Response: No,[1],5 (42) n (%)
same,Complete Response: Yes,[1],7 (58)* n (%)
same,patients who required rescue medicine,[2],25%
same,Rescue antiemetics used (patients),[2],31%
same,Adverse event: Asthenia,"[4]; human, in vivo",1 (6) n (%)
same,Adverse event: Chest pain,"[4]; human, in vivo",2 (13) n (%)
same,Adverse event: Constipation,"[4]; human, in vivo",2 (13) n (%)
same,Adverse event: Diarrhea,"[4]; human, in vivo",1 (6) n (%)
same,Adverse event: Dizziness,"[4]; human, in vivo",1 (6) n (%)
same,Adverse event: Fatigue,"[4]; human, in vivo",1 (6) n (%)
same,Adverse event: Headache,"[4]; human, in vivo",3 (19) n (%)
same,Adverse event: Hyperglycemia,"[4]; human, in vivo",2 (13) n (%)
same,Adverse event: Insomnia,"[4]; human, in vivo",2 (13) n (%)
same,Patients who permanently discontinued study medication because of a TEAE,"[4]; human, in vivo",2 (13) n (%)
same,Patients with at least 1 SAE,"[4]; human, in vivo",1 (6) n (%)
same,Patients with at least 1 TEAE,"[4]; human, in vivo",14 (88) n (%)
same,Patients with at least 1 TEAE leading to dose reduction,"[4]; human, in vivo",0 n (%)
same,Patients with at least 1 severe TEAE,"[4]; human, in vivo",1 (6) n (%)
